Assay results reported in US7329644B2, “Preparation and use of cyclic and branched peptides and their labelled derivatives as therapeutic agents, cholecystokinin agonists or antagonists, and diagnostic agents to identify and locate tumours” (Bracco Imaging S.p.A., priority 2001, dated 2008).
Read-outs that look alike come from different tables or passages of the source. Where a SMILES comes first, the peptide text is derived from it. Bridges are numbered along the chain shown (N, C = ends). [ ]: non-standard residue; d: D form. Dap = NC[C@H](N)C(=O)O

What was measured:
[1] = target: T1, fragment 1-47 of type A cholecystokinin receptor, CCKA-R(1-47) (Homo sapiens, UniProt P32238); test: Fluorescence spectroscopy binding to receptor fragment CCKA-R(1-47)
T1 construct: Fragment 1-47 of type A receptor, CCKA-R(1-47), and the compound of formula (IV), both synthesised by solid-phase peptide synthesis methods, were used; made in house; host or cells: chemical solid-phase peptide synthesis (no expression host)
T1 sequence (P32238 1-47): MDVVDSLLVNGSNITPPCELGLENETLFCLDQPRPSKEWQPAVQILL
Text: The binding between the compound prepared as described in example 1 and fragment 1-47 of type A cholecystokinin receptor was studied with fluorescence spectroscopy. Although the compound of formula (IV), as it has no sulphate functions on the tyrosine residue, should have greater affinity for type B cholecystokinin receptor, the experiment performed and the results obtained are entirely legitimate, because the receptor fragment used contains no residues (Arg 197) which are known to be responsible for interaction with the sulphate group.
Fragment 1-47 of type A receptor, CCKA-R(1-47), and the compound of formula (IV), both synthesised by solid-phase peptide synthesis methods, were used. Reference should be made to example 1 for the synthesis of compound (IV); for the synthesis of the receptor fragment, see R. Ragone, 47-53, 56, 2001, Biopolymers).
The interaction between receptor fragment CCKA-R(1-47) and compound (IV) was observed by monitoring the tryptophan fluorescence. The emission spectra were recorded at room temperature using a Jasco FP-750 spectrofluorimeter at the excitation wavelength of 296 nm to excite the tryptophan selectively. Small aliquots of a concentrated solution of compound (IV) dissolved in phosphate buffer at pH 7.2 were added to a fixed volume of a solution of CCKA-R(1-47) dissolved in the same solvent, in the presence of a 10 mM solution of sodium dodecylsulphate micelles, used to mimic the cell membrane. […]
Increasing quantities of compound of formula (IV) were added from a concentrated master solution containing 10 mM SDS micelles.
As will be seen in FIG. 2, which exemplifies a typical saturation curve, the fluorescence signal is gradually quenched as a result of the binding. The experiments were performed at various receptor concentrations, and fluorescence quenching was always observed. […] To distinguish the modifications in fluorescence caused by the binding, the contributions to fluorescence of the receptor and peptide isolated were subtracted, and a small variation in fluorescence compared with the value measured was obtained.

[2] = tested on: type A cholecystokinin receptor; test: Intracellular calcium response in myenteric neurones (confocal microscopy); format: cell-based; conditions: perfusion for 60 seconds
Text: Biological tests have been carried out to confirm the activity of the cyclic compound of formula (IV), using neurone cells which express type A cholecystokinin receptor. […] Both these compounds should show a lower level of activity than the corresponding analogs containing the sulphate group on the tyrosine residue. The biological activity tests involved the use of myenteric neurones as receptor-expressing cells, and the use of a confocal microscope with a suitable software package to measure peptide activity. The tests were based on the following assumptions: • 1) myenteric neurones (of the intestinal wall) normally express type A CCK receptor • 2) binding between CCK and the receptor induces excitation of the cell (change in membrane potential), which can be recorded with electrophysiology studies • 3) the cell excitation is coupled to the passage of calcium from the outside to the inside of the cell through specific membrane channels • 4) if the calcium is rendered fluorescent (using calcium chelators which modify the emission wavelength if they are excited at a particular wavelength), the increased concentration of the intracellular calcium in response to a stimulus can be recorded • 5) confocal laser microscopy with the aid of specific software therefore enables these phenomena to be recorded, and the fluorescence to be converted into the intracellular calcium concentration.

| Kd ([1]; experiments at various receptor concentrations, read-out: Kd range estimated by fitting procedures) [nM] | Kd ([1]; experiments at various receptor concentrations, standard deviation ±27 nM, read-out: Kd mean) [nM] | Kd ([1]; receptor concentration 2.6 μM, 10 mM phosphate buffer pH 7.2, 10 mM SDS micelles, fluorescence at 335 nm, read-out: Kd (binding curve of FIG. 2)) [nM] | Compound | intracellular calcium concentration [2] |
| --- | --- | --- | --- | --- |
| 50 to 200 | 120 | 255 | CSCC[C@@H]1NC(=O)[C@H](Cc2c[nH]c3ccccc23)NC(=O)[C@@H](NC(=O)[C@H](CCSC)NC(=O)[C@H](Cc2ccc(O)cc2)NC(=O)[C@@H](N)CC(=O)O)CNC(=O)[C@H](CCCCN)NC(=O)[C@H](Cc2ccccc2)NC(=O)[C@H](CC(=O)O)NC1=O [(IV)] (H-DYM[Dap]WMDFK; lactam 4-C) |  |
|  |  |  | Asp-Tyr-Met-Gly-Trp-Met-Asp-Phe-amide [CCK8] | induce an increase in the intracellular calcium concentration |
